Patent publication US11214574B2, “Selective inhibitors of protein arginine methyltransferase 5 (PRMT5)” (Prelude Therapeutics, Incorporated, priority 2018, dated 2022)

Experiments:
[1] = test system: sDMA marks (SmD3me2s) in Granta-519 cells; experiment: Western blotting for symmetric di-methyl arginine (sDMA) marks in Granta-519 cells; type: cell-based; details: Homo sapiens, 72 h; Granta-519 cell line (values in square brackets), 3 days treatment
Description: Cell Treatment and Western Blotting for Detecting Symmetric Di-Methyl Arginine (sDMA) Marks
Compound titration and cell culture: Compounds were dissolved in DMSO to make 10 mM stock and 3-fold series dilutions were further conducted to make working stocks top at 1 mM. Granta-519 cells were maintained in PRMI 1640 (Corning Cellgro, Catalog #: 10-040-CV) supplemented with 10% v/v FBS (GE Healthcare, Catalog #: SH30910.03) and U-87 MG cells were maintained in DMEM (Corning Cellgro, Catalog #: 10-013-CV) with 10% FBS and 2 mM Glutamin (Corning Cellgro, Catalog #25005CV).
To determine enzyme inhibition IC50 values in Granta-519 and U-87 MG cells using Western Blot analysis. One day before experiment, Granta-519 cells were passaged to a density of 0.5×10^6 cells/ml. U-87 MG cells were trypsinized and 4×10^5 cells were seeded into 6-well plates and allow to grow overnight. […]
Cells were harvested 3 days later, resuspended in 15 uL PBS, lysed in 4% SDS, and homogenized by passing through homogenizer column (Omega Biotek, Catalog #: HCR003). Total protein concentrations were determined by BCA assay (ThermoFisher Scientific, Catalog #: 23225). […] SmD3me2s bands were quantified by ImageJ. […] IC50 values were calculated using Graphpad Prism ([Inhibitor] vs. normalized response—Variable slope).

[2] = test system: γ-globin expression in K562 cells; experiment: γ-globin induction by quantitative PCR in K562 cells; type: cell-based; details: 0.1 μM, 6 days, N=1
Description: Compounds were dissolved in DMSO to make 10 mM stock solutions, and further diluted to make 1 mM and 0.1 mM stocks.
K562 cells were purchased from ATCC and maintained in Iscove's DMEM (Corning Cellgro, Catalog #15-016-CVR) supplemented with 10% v/v FBS (GE Healthcare, Catalog #: SH30910.03) in a CO2 incubator (5% CO2) at 37° C. Cells were plated at a density of 5×10^5 cells/ml and treated with compound at final concentrations of 0.1 and 1 μM. Media and compound were renewed after 3 days in culture and cells were collected for RNA isolation after 6 days of treatment.
Assessment of γ-Globin Induction by Quantitative PCR
RNA was isolated using Quick-RNA Microprep kit (Zymo Research, Catalog #Z1050), cDNA was synthesized using qScript cDNA SuperMix (Quantabio, Catalog #95048). Quantitative PCR for γ-globin was performed using PerfeCTa SYBR Green FastMix (Quantabio, Catalog #95071) on Bio-Rad CFX Connect Real-Time PCR Detection System. Gene expression analysis was performed using CFX Manager software.
Assessment of γ-Globin Induction by Quantitative PCR in K562 Cells
Compounds were dissolved in DMSO to make 10 mM stock solutions, and further diluted to make 1 mM and 0.1 mM stocks. K562 cells were purchased from ATCC and maintained in Iscove's DMEM (Corning Cellgro, Catalog #15-016-CVR) supplemented with 10% v/v FBS (GE Healthcare, Catalog #: SH30910.03) in a CO2 incubator (5% CO2) at 37° C. […]

PRMT5/MEP50 complex = PRMT5/MEP50 complex (Homo sapiens (Human), UniProt O14744); experiment: PRMT5 biochemical assay (SPA, 3H-SAM); details: PRMT5/MEP50 2.5 nM, 300 nM AcH4-23 substrate, 1 μM 3H-SAM
Chain of PRMT5/MEP50 complex (O14744 whole entry): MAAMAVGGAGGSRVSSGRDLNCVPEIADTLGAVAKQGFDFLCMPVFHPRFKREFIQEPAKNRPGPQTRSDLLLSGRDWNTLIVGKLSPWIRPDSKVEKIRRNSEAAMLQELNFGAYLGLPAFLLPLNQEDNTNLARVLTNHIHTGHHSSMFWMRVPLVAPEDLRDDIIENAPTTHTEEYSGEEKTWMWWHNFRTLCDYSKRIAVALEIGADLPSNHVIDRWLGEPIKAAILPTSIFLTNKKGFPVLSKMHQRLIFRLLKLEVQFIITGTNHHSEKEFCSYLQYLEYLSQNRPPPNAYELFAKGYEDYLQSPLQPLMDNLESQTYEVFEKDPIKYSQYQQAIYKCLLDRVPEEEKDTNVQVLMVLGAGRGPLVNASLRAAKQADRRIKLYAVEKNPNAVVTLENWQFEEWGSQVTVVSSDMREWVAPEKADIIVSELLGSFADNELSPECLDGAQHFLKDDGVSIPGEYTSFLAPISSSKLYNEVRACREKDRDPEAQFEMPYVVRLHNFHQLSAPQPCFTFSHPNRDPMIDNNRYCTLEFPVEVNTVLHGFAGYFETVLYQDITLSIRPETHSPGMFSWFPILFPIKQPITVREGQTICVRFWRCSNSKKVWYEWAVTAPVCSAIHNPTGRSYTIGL
Chain of PRMT5/MEP50 complex (Q9BQA1 whole entry partner): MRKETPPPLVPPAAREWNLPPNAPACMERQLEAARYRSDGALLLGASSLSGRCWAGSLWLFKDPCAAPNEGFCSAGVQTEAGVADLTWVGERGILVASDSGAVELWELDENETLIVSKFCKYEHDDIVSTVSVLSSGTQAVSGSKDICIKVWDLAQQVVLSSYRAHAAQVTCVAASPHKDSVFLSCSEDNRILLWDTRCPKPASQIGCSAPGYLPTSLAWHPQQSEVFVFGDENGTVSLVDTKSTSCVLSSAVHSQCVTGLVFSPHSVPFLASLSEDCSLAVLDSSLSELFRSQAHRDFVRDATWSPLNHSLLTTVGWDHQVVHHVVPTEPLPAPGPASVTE
Description: Biochemical Assay Protocol
Compounds were solubilized and 3-fold diluted in 100% DMSO. […] Standard reactions were performed in a total volume of 30 μl in assay buffer, with 300 nM histone H4 based AcH4-23 (Anaspec: AS-65002) as substrate. To this was added the PRMT5/MEP50 complex diluted to provide a final assay concentration of 2.5 nM and the compounds were allowed to preincubate for 20 minutes at 37° C. The reaction was initiated by adding S-[3H-methyl]-adenosyl-L-methionine (PerkinElmer: NET155001MC) to final concentration of 1 μM. Following a 30 minutes incubation at 37° C., the reaction was stopped by adding 25 μL of 8M Guanidine HCl. Prepare streptavidin YSI SPA beads (Perkinelmer: RPNQ0012) at 0.3 mg/mL in assay buffer. To each reaction, add 150 μL of SPA beads suspension, and incubated while shaking at room temperature for 30 minutes. The plate was centrifuged at 100×g for 30 second before reading in a scintillation counter. IC50 values were determined by fitting the data to the standard 4 parameters with Hill Slope using GraphPad Prism software.

SMILES	IC50 (PRMT5/MEP50 complex) [nM]	further results
Nc1ncnc2c1ccn2[C@@H]1C[C@H]([C@H]2OCc3cc(Cl)ccc32)[C@@H](O)[C@H]1O [Example 2A, (1R,2S,3R,5S)-3-(4-amino-7H-pyrrolo[2,3-d]pyrimidin-7-yl)-5-((R)-5-chloro-1,3-dihydroisobenzofuran-1-yl)cyclopentane-1,2-diol]		IC50 [1]: 27 nM
Nc1ncnc2c1ccn2[C@@H]1O[C@H]([C@@H]2OCc3ccc(Cl)cc32)[C@@H](O)[C@H]1O [Example 5, (2R,3R,4S,5S)-2-(4-amino-7H-pyrrolo[2,3-d]pyrimidin-7-yl)-5-((R)-6-chloro-1,3-dihydroisobenzofuran-1-yl)tetrahydrofuran-3,4-diol]		increase in expression of γ-globin [2]: 3 fold
Nc1ncnc2c1ccn2[C@@H]1O[C@H]([C@@H]2OCOCc3cc(Cl)ccc32)[C@@H](O)[C@H]1O [Example 81, (2R,3R,4S,5S)-2-(4-amino-7H-pyrrolo[2,3-d]pyrimidin-7-yl)-5-((R)-7-chloro-1,5-dihydrobenzo[e][1,3]dioxepin-1-yl)tetrahydrofuran-3,4-diol]	41.5	
Cc1ncnc2c1ccn2[C@@H]1O[C@H]([C@@H]2OCCCc3cc(Cl)ccc32)[C@@H](O)[C@H]1O [Example 101, (2S,3S,4R,5R)-2-((R)-7-chloro-1,3,4,5-tetrahydrobenzo[c]oxepin-1-yl)-5-(4-methyl-7H-pyrrolo[2,3-d]pyrimidin-7-yl)tetrahydrofuran-3,4-diol]	1580	
